Test results published in patent US20250154226A1, “LONG-ACTING GLP-1/GLP-2 DUAL AGONIST COMPOUND” (CHENGDU AODA BIOTECHNOLOGY CO., LTD, priority 2022, published 2025).
Starred links: 1 amine or outer side, 2 acyl side, 3 side chain; linkers in the order of their positions; H or OH if unused. Non-standard residues stand in square brackets, D forms with d. Residues, ends and D or L forms follow the SMILES beside them. Groups on a side chain read outwards from the residue. *: point of attachment. C18 diacid = O=C(O)CCCCCCCCCCCCCCCCC(=O)*; γGlu = O=C(O)[C@H](CCC(=O)[*:2])N[*:1]; AEEEA = NCCOCCOCCOCC(=O)O; AEEA = NCCOCCOCC(=O)O; Aib = CC(C)(N)C(=O)O

What was measured:
[1] = Preliminary determination of pharmacokinetic properties in cynomolgus monkeys; assay type: in vivo; settings: cynomolgus monkey; male cynomolgus monkeys; subcutaneous (SC) 0.1 mg/kg; plasma, LC-MS
Method: The test animals were cynomolgus monkeys, two male cynomolgus monkeys in each compound group, and the drug was subcutaneously administered at 0.1 mg/kg. The blood was collected intravenously before (0 h) the administration, and 1 h, 2 h, 3 h, 4 h, 8 h, 12 h, 18 h, 24 h, 48 h, 96 h, 144 h, and 168 h after the administration of the compounds, and then centrifuged to isolate plasma samples.

GLP-2R = target: T1, GLP-2R (Homo sapiens, UniProt O95838); test: Determination of GLP-2 activity: cAMP chemiluminescence (RLU) in CHO-K1 cell line stably expressing GLP-2R; assay type: cell-based; settings: read-out: GLP-2 activity [EC50 (nmol)]
T1 construct: expressed in transfected cells; host or cells: CHO-K1
T1 sequence (O95838 1-553): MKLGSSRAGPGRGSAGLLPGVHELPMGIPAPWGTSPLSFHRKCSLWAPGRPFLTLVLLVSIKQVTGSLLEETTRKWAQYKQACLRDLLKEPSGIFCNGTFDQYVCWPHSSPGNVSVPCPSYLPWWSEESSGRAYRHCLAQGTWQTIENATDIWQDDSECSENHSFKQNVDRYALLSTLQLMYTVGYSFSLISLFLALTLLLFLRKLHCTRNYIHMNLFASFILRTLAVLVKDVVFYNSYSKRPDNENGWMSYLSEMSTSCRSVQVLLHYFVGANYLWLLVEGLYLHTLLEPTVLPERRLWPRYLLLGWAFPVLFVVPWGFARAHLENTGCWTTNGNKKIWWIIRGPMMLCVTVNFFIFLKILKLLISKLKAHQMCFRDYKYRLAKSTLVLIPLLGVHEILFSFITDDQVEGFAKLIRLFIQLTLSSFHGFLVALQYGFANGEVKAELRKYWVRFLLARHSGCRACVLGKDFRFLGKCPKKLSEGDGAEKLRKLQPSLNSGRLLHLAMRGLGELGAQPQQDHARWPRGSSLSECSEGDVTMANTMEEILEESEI
Method: (§1) GLP-2R, under the stimulation of its specific agonist, can activate the intracellular adenylate cyclase pathway, and increase the level of cAMP, finally leading to the generation and release of insulin. The stimulation of the cell lines stably transfected with […] by the agonist to be tested can lead to rapid increase in the intracellular cAMP level, and the relative light units (RLUs) after stimulating the cells at each dose are determined by chemiluminescence method to calculate the EC50 of the agonist. This method for determining activity is commonly used for GLP-2 receptor agonist activity analysis at home and abroad.
CHO-K1 cell line stably expressing GLP-2R was stimulated with the agonist at different concentrations. The EC50 value of the agonist was calculated by determining the relative light units after stimulating the cells at each dose.

GLP-1R = target: T2, GLP-1R (Homo sapiens, UniProt P43220); test: Determination of GLP-1 activity: cAMP chemiluminescence (RLU) in CHO-K1 cell line stably expressing GLP-1R; assay type: cell-based; settings: read-out: GLP-1 activity [EC50 (pmol)]
T2 construct: expressed in transfected cells; host or cells: CHO-K1
Method: as §1, with “GLP-1R,” for “GLP-2R,”, “GLP-1” for “GLP-2”
CHO-K1 cell line stably expressing GLP-1R was stimulated with the agonist at different concentrations. The EC50 value of the agonist was calculated by determining the relative light units after stimulating the cells at each dose.

T2 sequence (P43220 24-463, species assumed): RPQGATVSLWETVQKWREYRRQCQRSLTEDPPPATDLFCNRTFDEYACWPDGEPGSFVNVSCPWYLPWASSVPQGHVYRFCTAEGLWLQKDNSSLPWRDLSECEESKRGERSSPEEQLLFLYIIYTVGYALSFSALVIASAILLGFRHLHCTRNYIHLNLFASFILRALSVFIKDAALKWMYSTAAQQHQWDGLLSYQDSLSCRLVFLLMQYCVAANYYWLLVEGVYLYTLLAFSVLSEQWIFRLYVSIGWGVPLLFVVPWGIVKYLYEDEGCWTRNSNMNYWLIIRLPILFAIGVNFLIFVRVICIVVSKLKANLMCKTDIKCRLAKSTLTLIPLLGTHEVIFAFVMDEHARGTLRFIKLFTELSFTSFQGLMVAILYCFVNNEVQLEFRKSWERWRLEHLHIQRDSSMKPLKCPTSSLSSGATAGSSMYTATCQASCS

Row | half-life [1] [h] | EC50 (GLP-2R) [nM] | EC50 (GLP-1R) [nM] | SMILES
1 | 59.2 | – | – | CC[C@H](C)[C@H](NC(=O)[C@H](Cc1ccccc1)NC(=O)[C@H](CC(=O)O)NC(=O)[C@H](CCCNC(=N)N)NC(=O)[C@H](C)NC(=O)[C@H](C)NC(=O)[C@H](CCC(N)=O)NC(=O)[C@H](CCCCNC(=O)COCCOCCOCCNC(=O)CC[C@H](NC(=O)CCCCCCCCCCCCCCCCC(=O)O)C(=O)O)NC(=O)[C@H](CC(=O)O)NC(=O)[C@H](CC(C)C)NC(=O)[C@@H](NC(=O)[C@@H](NC(=O)[C@H](C)NC(=O)[C@H](CC(C)C)NC(=O)[C@H](CCC(=O)O)NC(=O)[C@H](CO)NC(=O)[C@@H](NC(=O)[C@H](Cc1ccccc1)NC(=O)[C@H](CO)NC(=O)CNC(=O)[C@H](CCC(=O)O)NC(=O)C(C)(C)NC(=O)[C@@H](N)Cc1c[nH]cn1)[C@@H](C)O)[C@@H](C)O)[C@@H](C)CC)C(=O)N[C@@H](C)C(=O)N[C@@H](Cc1c[nH]c2ccccc12)C(=O)N[C@@H](CC(C)C)C(=O)N[C@H](C(=O)N[C@@H](CCC(N)=O)C(=O)N[C@@H](Cc1c[nH]cn1)C(=O)N[C@@H](CCCCN)C(=O)N[C@H](C(=O)N[C@H](C(=O)N[C@@H](CC(=O)O)C(N)=O)[C@@H](C)O)[C@@H](C)CC)[C@@H](C)CC [Compound 4, His-Aib-Glu-Gly-Ser-Phe-Thr-Ser-Glu-Leu-Ala-Thr-Ile-Leu-Asp-Lys(PEG3CH2CO-γGlu-octadecanedioic acid)-Gln-Ala-Ala-Arg-Asp-Phe-Ile-Ala-Trp-Leu-Ile-Gln-His-Lys-Ile-Thr-Asp-NH2] (H-H[Aib]EGSFTSELATILDK([AEEEA-γGlu-C18 diacid])QAARDFIAWLIQHKITD-NH2; N-terminus assumed)
2 | – | 4.7 | 0.0601 | CC[C@H](C)[C@H](NC(=O)[C@H](Cc1ccccc1)NC(=O)[C@H](CC(=O)O)NC(=O)[C@H](CCCNC(=N)N)NC(=O)[C@H](C)NC(=O)[C@H](C)NC(=O)[C@H](CCC(N)=O)NC(=O)[C@H](CCCCNC(=O)COCCOCCNC(=O)CC[C@H](NC(=O)CCCCCCCCCCCCCCCCC(=O)O)C(=O)O)NC(=O)[C@H](CC(=O)O)NC(=O)[C@H](CC(C)C)NC(=O)[C@@H](NC(=O)[C@@H](NC(=O)[C@H](C)NC(=O)[C@H](CC(C)C)NC(=O)[C@H](CCC(=O)O)NC(=O)[C@H](CO)NC(=O)[C@@H](NC(=O)[C@H](Cc1ccccc1)NC(=O)[C@H](CO)NC(=O)CNC(=O)[C@H](CCC(=O)O)NC(=O)C(C)(C)NC(=O)[C@@H](N)Cc1c[nH]cn1)[C@@H](C)O)[C@@H](C)O)[C@@H](C)CC)C(=O)N[C@@H](C)C(=O)N[C@@H](Cc1c[nH]c2ccccc12)C(=O)N[C@@H](CC(C)C)C(=O)N[C@H](C(=O)N[C@@H](CCC(N)=O)C(=O)N[C@@H](Cc1c[nH]cn1)C(=O)N[C@@H](CCCCN)C(=O)N[C@H](C(=O)N[C@H](C(=O)N[C@@H](CC(=O)O)C(N)=O)[C@@H](C)O)[C@@H](C)CC)[C@@H](C)CC [Compound 3, His-Aib-Glu-Gly-Ser-Phe-Thr-Ser-Glu-Leu-Ala-Thr-Ile-Leu-Asp-Lys(AEEA-γGlu-octadecanedioic acid)-Gln-Ala-Ala-Arg-Asp-Phe-Ile-Ala-Trp-Leu-Ile-Gln-His-Lys-Ile-Thr-Asp-NH2] (H-H[Aib]EGSFTSELATILDK([AEEA-γGlu-C18 diacid])QAARDFIAWLIQHKITD-NH2)
